Read-outs that look alike come from different tables or passages of the source.
Experiments:
Format in all cases: cell-based
[1] = target: T1, M1 muscarinic receptor (Homo sapiens, UniProt P11229); test: Functional mobilization of intracellular calcium (FLIPR) in CHO cells expressing M1; conditions: for EC50: CHO cells expressing M1, FLIPR calcium; for Emax: CHO; for M1 Activity: CHO cells expressing M1, FLIPR calcium assay
T1 construct: expressed in transfected cells; host or cells: CHO (M1-CHO)
T1 sequence (P11229 1-460): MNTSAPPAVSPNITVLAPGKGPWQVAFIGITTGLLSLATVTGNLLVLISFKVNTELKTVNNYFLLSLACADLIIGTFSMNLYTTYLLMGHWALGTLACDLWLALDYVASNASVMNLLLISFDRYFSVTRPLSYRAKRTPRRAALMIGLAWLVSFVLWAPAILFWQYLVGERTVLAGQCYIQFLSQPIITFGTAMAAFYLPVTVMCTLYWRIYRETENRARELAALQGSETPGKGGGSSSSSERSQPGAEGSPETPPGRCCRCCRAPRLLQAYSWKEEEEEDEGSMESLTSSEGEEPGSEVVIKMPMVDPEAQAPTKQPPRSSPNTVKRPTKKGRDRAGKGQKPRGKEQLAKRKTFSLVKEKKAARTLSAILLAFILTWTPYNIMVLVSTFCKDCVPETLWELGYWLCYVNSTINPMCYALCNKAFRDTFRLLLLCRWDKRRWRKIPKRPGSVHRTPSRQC
How it was run: (§1)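 Recombinant CHO cells loaded with Fluo-3 AM or Calcium 3 dye in pH 7.4 buffer containing 1 mM probenecid, with 0.5% final DMSO. For agonism, compound is added directly. For inhibition, it is preincubated 15 min, or co-applied, before carbachol at EC80. FLIPR fluorescence (ex 488, em 540 nm) is recorded for 60 s.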

[2] = target: T2, M2 muscarinic receptor (Homo sapiens, UniProt P08172); test: Functional mobilization of intracellular calcium (FLIPR) in CHO cells expressing M2; conditions: for EC50: CHO cells expressing M2, FLIPR calcium; for Emax: CHO; for M2 Activity: CHO cells expressing M2, FLIPR calcium assay
T2 construct: expressed in transfected cells; host or cells: CHO (M2-CHO)
T2 sequence (P08172 1-466): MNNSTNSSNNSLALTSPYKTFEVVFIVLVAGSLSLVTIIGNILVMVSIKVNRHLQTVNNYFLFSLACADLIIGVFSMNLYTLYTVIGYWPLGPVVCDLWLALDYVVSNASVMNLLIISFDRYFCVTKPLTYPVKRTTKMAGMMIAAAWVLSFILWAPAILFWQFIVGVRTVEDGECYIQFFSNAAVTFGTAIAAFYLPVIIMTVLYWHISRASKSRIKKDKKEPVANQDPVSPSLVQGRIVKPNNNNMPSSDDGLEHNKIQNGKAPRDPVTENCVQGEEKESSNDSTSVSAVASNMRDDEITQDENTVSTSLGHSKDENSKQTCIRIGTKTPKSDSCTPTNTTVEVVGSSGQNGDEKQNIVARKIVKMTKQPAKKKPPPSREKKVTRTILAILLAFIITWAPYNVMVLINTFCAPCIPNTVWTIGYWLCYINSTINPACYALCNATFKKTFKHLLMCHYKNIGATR
How it was run: as §1

[3] = target: T3, M3 muscarinic receptor (Homo sapiens, UniProt P20309); test: Functional mobilization of intracellular calcium (FLIPR) in CHO cells expressing M3; conditions: for EC50: CHO cells expressing M3, FLIPR calcium; for Emax: CHO; for M3 Activity: CHO cells expressing M3, FLIPR calcium assay
T3 construct: expressed in transfected cells; host or cells: CHO (M3-CHO)
T3 sequence (P20309 whole entry): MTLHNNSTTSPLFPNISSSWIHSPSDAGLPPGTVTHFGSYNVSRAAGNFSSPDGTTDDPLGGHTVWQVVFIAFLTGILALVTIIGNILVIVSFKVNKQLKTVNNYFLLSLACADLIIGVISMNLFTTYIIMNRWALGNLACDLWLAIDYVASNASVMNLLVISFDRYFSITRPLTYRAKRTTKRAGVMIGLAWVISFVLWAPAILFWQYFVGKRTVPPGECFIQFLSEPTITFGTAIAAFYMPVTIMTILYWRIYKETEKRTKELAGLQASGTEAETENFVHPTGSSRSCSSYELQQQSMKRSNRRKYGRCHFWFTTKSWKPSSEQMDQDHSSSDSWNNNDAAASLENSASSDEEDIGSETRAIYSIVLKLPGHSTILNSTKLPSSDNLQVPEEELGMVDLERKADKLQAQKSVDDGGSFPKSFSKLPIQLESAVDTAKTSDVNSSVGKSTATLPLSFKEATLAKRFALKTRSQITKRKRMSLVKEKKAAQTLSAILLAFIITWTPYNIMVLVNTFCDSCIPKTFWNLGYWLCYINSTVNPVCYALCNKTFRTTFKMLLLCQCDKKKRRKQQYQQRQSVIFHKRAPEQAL
How it was run: as §1

[4] = target: T4, M4 muscarinic receptor (Homo sapiens, UniProt P08173); test: Functional mobilization of intracellular calcium (FLIPR) in CHO cells expressing M4; conditions: for EC50: CHO cells expressing M4, FLIPR calcium; for Emax: CHO; for M4 Activity: CHO cells expressing M4, FLIPR calcium assay
T4 construct: expressed in transfected cells; host or cells: CHO (M4-CHO)
T4 sequence (P08173 1-479): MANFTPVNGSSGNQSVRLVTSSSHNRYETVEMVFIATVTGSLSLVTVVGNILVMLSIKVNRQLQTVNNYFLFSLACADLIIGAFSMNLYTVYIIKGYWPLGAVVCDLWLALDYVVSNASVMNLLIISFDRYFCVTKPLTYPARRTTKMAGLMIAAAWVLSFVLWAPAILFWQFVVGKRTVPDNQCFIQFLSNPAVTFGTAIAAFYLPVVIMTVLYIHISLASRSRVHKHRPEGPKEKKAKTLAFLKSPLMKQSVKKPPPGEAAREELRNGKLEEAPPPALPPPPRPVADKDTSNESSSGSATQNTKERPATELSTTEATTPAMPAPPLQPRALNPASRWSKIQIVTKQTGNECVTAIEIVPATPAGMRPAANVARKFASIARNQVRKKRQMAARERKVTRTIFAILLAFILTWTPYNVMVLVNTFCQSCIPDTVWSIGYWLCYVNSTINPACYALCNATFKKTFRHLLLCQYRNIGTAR
How it was run: as §1

[5] = 100% = maximum response obtained with the Carbachol control, read-out: M1 Efficacy
[6] = 100% = maximum response obtained with the Carbachol control, read-out: M2 Efficacy
[7] = 100% = maximum response obtained with the Carbachol control, read-out: M3 Efficacy
[8] = 100% = maximum response obtained with the Carbachol control, read-out: M4 Efficacy
[9] = 100% efficacy = maximum response obtained with the Carbachol control

Structure (SMILES)	EC50 [1] [µM]	Emax [1, 5] [%]	EC50 [2] [µM]	Emax [2, 6] [%]	EC50 [3] [µM]	Emax [3, 7] [%]	EC50 [4] [µM]	Emax [4, 8] [%]	M1 Activity [1]	Emax [1, 9] [%]	M2 Activity [2]	Emax [2, 9] [%]	M3 Activity [3]	Emax [3, 9] [%]	M4 Activity [4]	Emax [4, 9] [%]
CC(=O)NCCC(=O)N[C@@H]1CCC2(CCN(CCC(C)(C)C)CC2)c2ccccc21 [compound 8]	< 2	25 to 100	2 to 5	< 25	> 5	< 25	< 2	25 to 100								
CCC(=O)N[C@@H]1CCC2(CCN(CCC(C)(C)C)CC2)c2ccccc21 [compound 62]	> 5	< 25	> 5	< 25	> 5	< 25	< 2	25 to 100								
CC(=O)NC(C(=O)N[C@@H]1CCC2(CCN(CCC(C)(C)C)CC2)c2ccccc21)C(C)C (stereo partly drawn) [compound 87]	> 5	< 25	> 5	< 25	> 5	< 25	< 2	25 to 100								
C[C@@H](C(=O)N[C@H]1CCC2(CCN(CCC(C)(C)C)CC2)c2cc(F)ccc21)N1CCCC1=O [compound 106]	< 2	25 to 100	< 2	25 to 100	> 5	< 25	< 2	25 to 100								
CCC(=O)N[C@H]1CCC2(CCN(CCC(C)(C)C)CC2)c2ccccc21 [compound 156]	< 2	25 to 100	< 2	25 to 100	> 5	< 25	< 2	25 to 100								
CC(C)COC(=O)N(C)[C@H]1CCC2(CCN(CCC(C)(C)C)CC2)c2ccccc21 [compound 208]									+++ (activity was measured to be less than 2.0 μM)	25 to 100	+++ (activity was measured to be less than 2.0 μM)	< 25	+ (activity was measured to be greater than 5.0 μM)	< 25	+++ (activity was measured to be less than 2.0 μM)	25 to 100
CC(C)(C)OC(=O)N1CCC2(CC1)C[C@H](NC(=O)c1ccccc1)c1ccccc12 [compound 255]									+ (activity was measured to be greater than 5.0 μM)	< 25	+ (activity was measured to be greater than 5.0 μM)	< 25	+ (activity was measured to be greater than 5.0 μM)	< 25	+ (activity was measured to be greater than 5.0 μM)	< 25
C=CCC(C)(C)CN1CCC2(CC1)C[C@H](NC(C)=O)c1ccccc12 [compound 263]									+ (activity was measured to be greater than 5.0 μM)	25 to 100	+ (activity was measured to be greater than 5.0 μM)	< 25	+ (activity was measured to be greater than 5.0 μM)	< 25	++ (activity was measured to be from 2.0 μM to 5.0 μM)	< 25
Cn1cc(C(=O)N[C@H]2CCC3(CCN(CCC(C)(C)C)CC3)c3ccccc32)cn1 [compound 58]	< 2	25 to 100	< 2	25 to 100	> 5	< 25	< 2	25 to 100								
CC(=O)N(C)[C@H]1CCC2(CCN(CCC(C)(C)C)CC2)c2cc(F)ccc21 [compound 218]									+++ (activity was measured to be less than 2.0 μM)	25 to 100	+++ (activity was measured to be less than 2.0 μM)	< 25	+ (activity was measured to be greater than 5.0 μM)	< 25	+++ (activity was measured to be less than 2.0 μM)	25 to 100
CN(C)C(=O)N[C@H]1CC2(CCN(CCC(C)(C)C)CC2)c2ccccc21 [compound 297]									+ (activity was measured to be greater than 5.0 μM)	< 25	+ (activity was measured to be greater than 5.0 μM)	< 25	+ (activity was measured to be greater than 5.0 μM)	< 25	+ (activity was measured to be greater than 5.0 μM)	< 25
Cn1cnc(C(=O)N[C@@H]2CCC3(CCN(CCC(C)(C)C)CC3)c3cc(F)ccc32)c1 [compound 180]	< 2	25 to 100	< 2	25 to 100	> 5	< 25	< 2	25 to 100								
COC(C)(C)CCCC(C)CCN1CCC2(CC[C@H](NC(=O)N(C)C)c3ccccc32)CC1 (stereo partly drawn) [compound 19]	> 5	< 25	> 5	< 25	> 5	< 25	> 5	< 25								
CC(=O)N[C@H](C)C(=O)N[C@@H]1CCC2(CCN(CCC(C)(C)C)CC2)c2ccccc21 [compound 162]	> 5	25 to 100	> 5	< 25	> 5	< 25	< 2	25 to 100								
CC(C)(C)CCN1CCC2(CC[C@@H](NC(=O)C3CCCO3)c3ccc(F)cc32)CC1 (stereo partly drawn) [compound 133]	< 2	25 to 100	< 2	25 to 100	> 5	< 25	< 2	25 to 100								
CC(C)CCN1CCC2(CC1)C[C@H](NC(=O)N1CCCC1)c1ccccc12 [compound 294]									+ (activity was measured to be greater than 5.0 μM)	< 25	+ (activity was measured to be greater than 5.0 μM)	< 25	+ (activity was measured to be greater than 5.0 μM)	< 25	+ (activity was measured to be greater than 5.0 μM)	< 25
CC(=O)N1CCCC[C@H]1C(=O)N[C@@H]1CCC2(CCN(CCC(C)(C)C)CC2)c2cc(F)ccc21 [compound 72]	2 to 5	25 to 100	2 to 5	< 25	> 5	< 25	< 2	25 to 100								
CC(C)CCN1CCC2(CC[C@H](NC(=O)N(C)C)c3ccccc32)CC1 [compound 148]	> 5	< 25	> 5	< 25	> 5	< 25	2 to 5	25 to 100								
